Reference: the supplement of paper PMC10307832

Experiments:
Assay in all cases: relative viability (nuclei count vs DMSO), 5 days (fraction); higher = more cells survive
[1] = system: NCI-H2347
Method in brief: (§1)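 Cells from lung cancer lines were seeded into 1536-well plates and, one day later, dosed by pin tool. Treatments were either a single drug or a fixed dose of an anchor drug with five library-drug doses (not always all listed) in √10 steps. After 5 days, nuclei were stained in a one-step fixation (final 0.05% Triton X-100, 1% formaldehyde, 1 ug/ml Hoechst) and counted on 4× images, and relative viability is the treated-to-vehicle nuclei ratio, as the median of duplicate plates.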

[2] = system: EMC-BAC-2
Method in brief: as §1

[3] = system: NCI-H2087
Method in brief: as §1

[4] = system: NCI-H650
Method in brief: as §1

[5] = system: HARA
Method in brief: as §1

[6] = system: NCI-H23
Method in brief: as §1

[7] = system: HCC-44
Method in brief: as §1

[8] = system: NCI-H596
Method in brief: as §1

[9] = system: NCI-H2126
Method in brief: as §1

[10] = system: LOU-NH91
Method in brief: as §1

[11] = system: NCI-H1993
Method in brief: as §1

[12] = system: LCLC-103H
Method in brief: as §1

[13] = system: NCI-H647
Method in brief: as §1

[14] = system: NCI-H3122
Method in brief: as §1

[15] = system: NCI-H441
Method in brief: as §1

[16] = system: NCI-H838
Method in brief: as §1

[17] = system: BEN
Method in brief: as §1

[18] = system: NCI-H727
Method in brief: as §1

[19] = system: NCI-H2023
Method in brief: as §1

[20] = system: 201T
Method in brief: as §1

**Q.** With `COc1nc(C)cnc1NS(=O)(=O)c1cccnc1-c1ccc(-c2nnco2)cc1` [Zibotentan] + CC(C)C[C@H](NC(=O)[C@H](Cc1ccccc1)NC(=O)c1cnccn1)B(O)O [Bortezomib] (partner 0.002 µM) as the compound, how does the relative viability ([1]; first compound 0.08 µM) read?
**A.** 1.08

**Q.** And the relative viability ([1]; first compound 0.253 µM)?
**A.** 0.871

**Q.** And the relative viability ([1]; first compound 0.8 µM)?
**A.** 1.04

**Q.** And the relative viability ([1]; first compound 2.53 µM)?
**A.** 0.734

**Q.** What about the relative viability ([2]; first compound 0.08 µM) of the same compound?
**A.** 1.18

**Q.** What about the relative viability ([2]; first compound 0.253 µM) of the same compound?
**A.** 1.04

**Q.** And the relative viability ([2]; first compound 0.8 µM)?
**A.** 1.07

**Q.** What about the relative viability ([2]; first compound 2.53 µM) of the same compound?
**A.** 1.09

**Q.** And the relative viability ([3]; first compound 0.08 µM)?
**A.** 0.939

**Q.** And the relative viability ([3]; first compound 0.253 µM)?
**A.** 0.801

**Q.** What about the relative viability ([3]; first compound 0.8 µM) of the same compound?
**A.** 0.736

**Q.** What about the relative viability ([3]; first compound 2.53 µM) of the same compound?
**A.** 0.873

**Q.** And the relative viability ([4]; first compound 0.08 µM)?
**A.** 0.769

**Q.** What about the relative viability ([4]; first compound 0.253 µM) of the same compound?
**A.** 0.742

**Q.** And the relative viability ([4]; first compound 0.8 µM)?
**A.** 0.726

**Q.** What about the relative viability ([4]; first compound 2.53 µM) of the same compound?
**A.** 0.696

**Q.** What about the relative viability ([5]; first compound 0.08 µM) of the same compound?
**A.** 1.18

**Q.** And the relative viability ([5]; first compound 0.253 µM)?
**A.** 1.13

**Q.** What about the relative viability ([5]; first compound 0.8 µM) of the same compound?
**A.** 1.15

**Q.** What about the relative viability ([5]; first compound 2.53 µM) of the same compound?
**A.** 1.19

**Q.** What about the relative viability ([6]; first compound 0.08 µM) of the same compound?
**A.** 1.25

**Q.** What about the relative viability ([6]; first compound 0.253 µM) of the same compound?
**A.** 1.1

**Q.** And the relative viability ([6]; first compound 0.8 µM)?
**A.** 0.999

**Q.** What about the relative viability ([6]; first compound 2.53 µM) of the same compound?
**A.** 1.29

**Q.** What about the relative viability ([7]; first compound 0.08 µM) of the same compound?
**A.** 0.909

**Q.** And the relative viability ([7]; first compound 0.253 µM)?
**A.** 0.894

**Q.** What about the relative viability ([7]; first compound 0.8 µM) of the same compound?
**A.** 0.959

**Q.** What about the relative viability ([7]; first compound 2.53 µM) of the same compound?
**A.** 0.883

**Q.** And the relative viability ([8]; first compound 0.08 µM)?
**A.** 0.966

**Q.** What about the relative viability ([8]; first compound 0.253 µM) of the same compound?
**A.** 0.935

**Q.** What about the relative viability ([8]; first compound 0.8 µM) of the same compound?
**A.** 1.06

**Q.** What about the relative viability ([8]; first compound 2.53 µM) of the same compound?
**A.** 1.31

**Q.** And the relative viability ([9]; first compound 0.08 µM)?
**A.** 1.19

**Q.** And the relative viability ([9]; first compound 0.253 µM)?
**A.** 1.15

**Q.** What about the relative viability ([9]; first compound 0.8 µM) of the same compound?
**A.** 1.15

**Q.** And the relative viability ([9]; first compound 2.53 µM)?
**A.** 1.16

**Q.** What about the relative viability ([10]; first compound 0.08 µM) of the same compound?
**A.** 0.469

**Q.** And the relative viability ([10]; first compound 0.253 µM)?
**A.** 0.443

**Q.** And the relative viability ([10]; first compound 0.8 µM)?
**A.** 0.538

**Q.** What about the relative viability ([10]; first compound 2.53 µM) of the same compound?
**A.** 0.815

**Q.** And the relative viability ([11]; first compound 0.253 µM)?
**A.** 1.05

**Q.** What about the relative viability ([11]; first compound 0.8 µM) of the same compound?
**A.** 0.994

**Q.** And the relative viability ([11]; first compound 2.53 µM)?
**A.** 1.8

**Q.** And the relative viability ([12]; first compound 0.08 µM)?
**A.** 1.02

**Q.** What about the relative viability ([12]; first compound 0.253 µM) of the same compound?
**A.** 1

**Q.** What about the relative viability ([12]; first compound 0.8 µM) of the same compound?
**A.** 1.27

**Q.** What about the relative viability ([12]; first compound 2.53 µM) of the same compound?
**A.** 1.04

**Q.** What about the relative viability ([13]; first compound 0.08 µM) of the same compound?
**A.** 0.859

**Q.** And the relative viability ([13]; first compound 0.253 µM)?
**A.** 0.818

**Q.** And the relative viability ([13]; first compound 0.8 µM)?
**A.** 0.891

**Q.** And the relative viability ([13]; first compound 2.53 µM)?
**A.** 1.11

**Q.** And the relative viability ([14]; first compound 0.08 µM)?
**A.** 1.02

**Q.** And the relative viability ([14]; first compound 0.253 µM)?
**A.** 0.979

**Q.** What about the relative viability ([14]; first compound 0.8 µM) of the same compound?
**A.** 0.992

**Q.** What about the relative viability ([14]; first compound 2.53 µM) of the same compound?
**A.** 1.03

**Q.** And the relative viability ([15]; first compound 0.08 µM)?
**A.** 0.846

**Q.** And the relative viability ([15]; first compound 0.8 µM)?
**A.** 0.463

**Q.** And the relative viability ([15]; first compound 2.53 µM)?
**A.** 0.539

**Q.** And the relative viability ([16]; first compound 0.08 µM)?
**A.** 0.891

**Q.** And the relative viability ([16]; first compound 0.253 µM)?
**A.** 0.865

**Q.** What about the relative viability ([16]; first compound 0.8 µM) of the same compound?
**A.** 0.815

**Q.** And the relative viability ([16]; first compound 2.53 µM)?
**A.** 0.961

**Q.** What about the relative viability ([17]; first compound 0.08 µM) of the same compound?
**A.** 0.912

**Q.** What about the relative viability ([17]; first compound 0.253 µM) of the same compound?
**A.** 0.824

**Q.** And the relative viability ([17]; first compound 0.8 µM)?
**A.** 0.792

**Q.** And the relative viability ([17]; first compound 2.53 µM)?
**A.** 0.593

**Q.** What about the relative viability ([18]; first compound 0.08 µM) of the same compound?
**A.** 0.745

**Q.** And the relative viability ([18]; first compound 0.253 µM)?
**A.** 0.768

**Q.** What about the relative viability ([18]; first compound 0.8 µM) of the same compound?
**A.** 0.966

**Q.** What about the relative viability ([18]; first compound 2.53 µM) of the same compound?
**A.** 0.805

**Q.** What about the relative viability ([19]; first compound 0.08 µM) of the same compound?
**A.** 1.04

**Q.** And the relative viability ([19]; first compound 0.253 µM)?
**A.** 0.87

**Q.** What about the relative viability ([19]; first compound 0.8 µM) of the same compound?
**A.** 0.909

**Q.** And the relative viability ([19]; first compound 2.53 µM)?
**A.** 0.966

**Q.** And the relative viability ([20]; first compound 0.08 µM)?
**A.** 1.1

**Q.** What about the relative viability ([20]; first compound 0.253 µM) of the same compound?
**A.** 1.05

**Q.** And the relative viability ([20]; first compound 0.8 µM)?
**A.** 1.11

**Q.** What about the relative viability ([20]; first compound 2.53 µM) of the same compound?
**A.** 1.11
